Among the data in ChEMBL document CHEMBL1152874, “Synthesis of sulfonyl curcumin mimics exerting a vasodilatation effect on the basilar artery of rabbits” (Bioorg Med Chem Lett, 2009) are Activity and EC50 values, retold here.

Assay [1] in a line: Vasodilation activity against depolarization-induced contraction in anaesthetized white rabbit basilar artery at 10 uM. The format is functional, tissue-based. Particulars: Oryctolagus cuniculus.
The nature of assay [2]: Vasodilation activity against depolarization-induced contraction in anaesthetized white rabbit basilar artery. In kind it is functional, tissue-based, Oryctolagus cuniculus.

Consider `COc1cc(/C=C/C(=O)c2cccc(NS(=O)(=O)c3ccc(C(F)(F)F)cc3)c2)ccc1O`, for which the Activity in assay [1] came out at 65.8%.
In assay [1], `CCCS(=O)(=O)Nc1cccc(C(=O)/C=C/c2ccc(O)c(OC)c2)c1` returned an Activity of 42.3%.
Same read-out and setting: with `CCCC(=O)Nc1cccc(C(=O)/C=C/c2ccc(O)c(OC)c2)c1` the figure was 32.3%; with `COc1cc(/C=C/C(=O)c2cccc(NS(C)(=O)=O)c2)ccc1O`, 4.2%.
On the same count and under the same terms, to `COc1cc(/C=C/C(=O)c2cccc(NS(=O)(=O)c3cccc(C(F)(F)F)c3)c2)ccc1O` belongs 52.3%.
The same measure, in the same setting: with `COc1cc(/C=C/C(=O)c2cccc(NS(=O)(=O)c3ccc(F)cc3)c2)ccc1O` the figure was 71.8%.
Consider `COc1cc(/C=C/C(=O)c2cccc(NS(=O)(=O)c3ccccc3)c2)ccc1O`, for which the Activity in assay [1] stood at 40.4%.
In assay [1], `COc1cc(/C=C/C(=O)c2cccc(NS(=O)(=O)c3ccc(OC(F)(F)F)cc3)c2)ccc1O` had an Activity of 76.7%.
On to `COc1cc(/C=C/C(=O)c2cccc(NS(=O)(=O)c3c(Cl)cccc3Cl)c2)ccc1O`, for which the response in assay [2] was half-maximal at 2.78 µM (EC50). Moreover, the Activity in assay [1] stood at 99.4%.
In assay [1], `COc1cc(/C=C/C(=O)c2cccc(NS(=O)(=O)c3ccc(Cl)cc3Cl)c2)ccc1O` showed an Activity of 4.2%.
On to `COc1cc(/C=C/C(=O)c2cccc(N)c2)ccc1O`, for which the Activity in assay [1] was 8.3%.
Same read-out and setting: to `COc1cc(/C=C/C(=O)c2cccc(NC(=O)c3ccc(Cl)cc3Cl)c2)ccc1O` belongs 27.9%; to `COc1cc(/C=C/C(=O)c2cccc(NC(C)=O)c2)ccc1O`, 20.6%; to `COc1cc(/C=C/C(=O)c2cccc(NS(=O)(=O)c3cccs3)c2)ccc1O`, 36.1%.
The compound `COc1ccc(S(=O)(=O)Nc2cccc(C(=O)/C=C/c3ccc(O)c(OC)c3)c2)cc1` gave an Activity in assay [1] of 26.4%.
On the same count and under the same terms, to `COc1cc(/C=C/C(=O)c2cccc(NS(=O)(=O)c3ccc(Cl)c(Cl)c3)c2)ccc1O` belongs 30.2%.
As for `COc1cc(/C=C/C(=O)c2cccc(NC(=O)C(C)C)c2)ccc1O`, in assay [1], the Activity is 22.5%.
Regarding `COc1cc(/C=C/C(=O)c2cccc(NS(=O)(=O)c3cc(Cl)cc(Cl)c3)c2)ccc1O`, the Activity in assay [1] amounted to 37.3%.
Compound `COc1cc(/C=C/C(=O)c2cccc(NS(=O)(=O)C(C)C)c2)ccc1O` yielded an Activity in assay [1] of 8.4%.
In assay [1], `COc1cc(/C=C/C(=O)c2cccc(NC(=O)c3ccco3)c2)ccc1O` showed an Activity of 41.7%.
For the compound `COc1cc(/C=C/C(=O)c2cccc(NC(=O)c3cccs3)c2)ccc1O`, the Activity in assay [1] turned out to be 27.1%.
`COc1cc(/C=C/C(=O)CC(=O)/C=C/c2ccc(O)c(OC)c2)ccc1O` [CURCUMIN] had an EC50 in assay [2] of 7.48 µM. This compound showed an Activity in assay [1] of 58.4%.
In assay [2], `COc1cc(/C=C/C(=O)c2cccc(NS(=O)(=O)c3ccc(Cl)cc3)c2)ccc1O` showed an EC50 of 5.58 µM. The same compound registered an Activity in assay [1] of 93.4%.

For orientation: EC50 means the concentration that produces a half-maximal response.
